Test results reported in the NIST ThermoML archive (doi:10.1016/j.fluid.2004.09.013).
Numbers after ± are expanded uncertainties.

Conditions: for mass density: Fluid (supercritical or subcritical phases), Vibrating tube method; for vapor or sublimation pressure: Liquid

C/C=C\C [(Z)-2-butene]
Conditions	mass density [kg/m3]
393.23 K, 9997 kPa	513.82 ± 1.1
393.23 K, 15000 kPa	529.93 ± 1.1
393.23 K, 20002 kPa	542.79 ± 1.2
393.23 K, 24993 kPa	553.61 ± 1.2
393.23 K, 29998 kPa	563 ± 1.3
393.23 K, 35001 kPa	571.39 ± 1.4
393.23 K, 39987 kPa	578.89 ± 1.4
398.23 K, 2818 kPa	466.01 ± 0.98
398.23 K, 4984 kPa	481.85 ± 1
398.23 K, 20014 kPa	537.23 ± 1.2
398.23 K, 25003 kPa	548.52 ± 1.2
398.23 K, 34998 kPa	566.9 ± 1.3
398.23 K, 39994 kPa	574.66 ± 1.4
398.24 K, 9988 kPa	506.47 ± 1.1
398.24 K, 14995 kPa	523.68 ± 1.1
398.24 K, 29983 kPa	558.24 ± 1.3
403.23 K, 3025 kPa	454.7 ± 0.96
403.23 K, 14991 kPa	517.31 ± 1.1
403.23 K, 25002 kPa	543.35 ± 1.2
403.23 K, 29989 kPa	553.46 ± 1.3
403.23 K, 34986 kPa	562.37 ± 1.3
403.23 K, 39984 kPa	570.38 ± 1.4
403.24 K, 4991 kPa	471.74 ± 1
403.24 K, 9985 kPa	498.93 ± 1.1
403.24 K, 20009 kPa	531.6 ± 1.2
408.23 K, 14993 kPa	510.87 ± 1.1
408.23 K, 29988 kPa	548.67 ± 1.3
408.23 K, 39992 kPa	566.14 ± 1.4
408.24 K, 3245 kPa	443.06 ± 0.94
408.24 K, 5000 kPa	461.02 ± 0.98
408.24 K, 10003 kPa	491.26 ± 1.1
408.24 K, 20000 kPa	525.89 ± 1.2
408.24 K, 25002 kPa	538.19 ± 1.2
408.24 K, 35001 kPa	557.91 ± 1.3
413.23 K, 34991 kPa	553.36 ± 1.3
413.23 K, 39999 kPa	561.87 ± 1.4
413.24 K, 3479 kPa	430.52 ± 0.92
413.24 K, 4987 kPa	448.83 ± 0.95
413.24 K, 9995 kPa	483.23 ± 1
413.24 K, 14993 kPa	504.29 ± 1.1
413.24 K, 20000 kPa	520.13 ± 1.2
413.24 K, 25001 kPa	532.97 ± 1.2
413.24 K, 29987 kPa	543.83 ± 1.3
418.23 K, 9989 kPa	474.95 ± 1
418.23 K, 29990 kPa	538.98 ± 1.3
418.24 K, 3727 kPa	416.94 ± 0.91
418.24 K, 4983 kPa	435.78 ± 0.93
418.24 K, 14999 kPa	497.65 ± 1.1
418.24 K, 19989 kPa	514.28 ± 1.2
418.24 K, 24991 kPa	527.69 ± 1.2
418.24 K, 35007 kPa	548.86 ± 1.3
418.24 K, 40000 kPa	557.55 ± 1.4
423.24 K, 3987 kPa	401.93 ± 0.9
423.24 K, 4998 kPa	421.22 ± 0.93
423.24 K, 9996 kPa	466.36 ± 1
423.24 K, 14993 kPa	490.76 ± 1.1
423.24 K, 19998 kPa	508.37 ± 1.2
423.24 K, 24983 kPa	522.32 ± 1.2
423.24 K, 30000 kPa	534.08 ± 1.3
423.24 K, 34984 kPa	544.2 ± 1.3
423.24 K, 39995 kPa	553.2 ± 1.4
428.24 K, 4261 kPa	385.43 ± 0.91
428.24 K, 4996 kPa	404.14 ± 0.92
428.24 K, 10003 kPa	457.53 ± 0.99
428.24 K, 14984 kPa	483.8 ± 1.1
428.24 K, 20011 kPa	502.46 ± 1.1
428.24 K, 24985 kPa	517 ± 1.2
428.24 K, 29987 kPa	529.17 ± 1.3
428.24 K, 34985 kPa	539.65 ± 1.3
428.24 K, 40008 kPa	548.93 ± 1.4
433.24 K, 4552 kPa	367.25 ± 1.3
433.24 K, 5002 kPa	383.51 ± 0.93
433.24 K, 9988 kPa	448.25 ± 0.98
433.24 K, 15006 kPa	476.83 ± 1.1
433.24 K, 20002 kPa	496.43 ± 1.1
433.24 K, 24994 kPa	511.67 ± 1.2
433.24 K, 29984 kPa	524.27 ± 1.3
433.24 K, 35007 kPa	535.14 ± 1.3
433.24 K, 39990 kPa	544.63 ± 1.4
438.24 K, 5016 kPa	356.57 ± 0.89
438.24 K, 9984 kPa	438.25 ± 0.96
438.24 K, 15001 kPa	469.64 ± 1.1
438.24 K, 20003 kPa	490.38 ± 1.1
438.24 K, 24991 kPa	506.29 ± 1.2
438.24 K, 29997 kPa	519.4 ± 1.3
438.24 K, 35007 kPa	530.6 ± 1.3
438.24 K, 39994 kPa	540.34 ± 1.4
443.23 K, 5019 kPa	312.48 ± 1.1
443.24 K, 10006 kPa	428.67 ± 0.95
443.24 K, 14981 kPa	462.28 ± 1
443.24 K, 20008 kPa	484.35 ± 1.1
443.24 K, 24985 kPa	500.93 ± 1.2
443.24 K, 29991 kPa	514.54 ± 1.3
443.24 K, 34987 kPa	526.05 ± 1.3
443.24 K, 39991 kPa	536.15 ± 1.4
448.23 K, 5020 kPa	224.32 ± 1.1
448.24 K, 9992 kPa	418.15 ± 0.95
448.24 K, 15006 kPa	454.98 ± 1
448.24 K, 20001 kPa	478.13 ± 1.1
448.24 K, 24996 kPa	495.5 ± 1.2
448.24 K, 30011 kPa	509.66 ± 1.3
448.24 K, 34990 kPa	521.51 ± 1.3
448.24 K, 39989 kPa	531.87 ± 1.4
453.24 K, 5018 kPa	172.57 ± 0.79
453.24 K, 9981 kPa	407.03 ± 0.95
453.24 K, 14999 kPa	447.35 ± 1
453.24 K, 20011 kPa	471.95 ± 1.1
453.24 K, 24994 kPa	490.05 ± 1.2

Conditions	vapor or sublimation pressure [kPa]
396.4 K	2209.3 ± 14
400.36 K	2343.2 ± 15
407.79 K	2693.7 ± 17
414.25 K	3004.6 ± 19
416.29 K	3089.5 ± 20
422.73 K	3456.3 ± 22
425.59 K	3598.4 ± 23
430.42 K	3884.7 ± 24
433.88 K	4101.1 ± 26
